This passage reports Kd results from paper PMC10105947, “Discovery of novel amino acid production traits by evolution of synthetic co-cultures” (Microbial Cell Factories, 2023).

The target in test [1] is T1, ArgT (Corynebacterium glutamicum, UniProt Q8NQU2).
T1 construct: His10-ArgT, variant with cleavable His-tag and lacking the signal peptide
As to the kind of experiment: isothermal titration calorimetry, purified His10-ArgT. It counts as binding.

Test [2] concerns the target T1, ArgT. As to the kind of experiment: isothermal titration calorimetry, purified His10-ArgT (one measurement). Type of test: binding.

T1 sequence (Q8NQU2 27-304): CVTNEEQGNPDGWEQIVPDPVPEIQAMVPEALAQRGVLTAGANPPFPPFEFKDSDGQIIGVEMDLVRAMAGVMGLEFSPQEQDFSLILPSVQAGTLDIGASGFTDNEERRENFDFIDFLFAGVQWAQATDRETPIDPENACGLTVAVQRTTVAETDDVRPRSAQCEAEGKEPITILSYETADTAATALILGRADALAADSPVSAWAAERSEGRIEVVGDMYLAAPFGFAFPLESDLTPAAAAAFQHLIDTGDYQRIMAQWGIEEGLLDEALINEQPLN

`N=C(N)NCCC[C@H](N)C(=O)O` [L-arginine]: in test [1], the Kd came to 29.5 ± 4.8 nM. In the case of `NC(=O)NCCC[C@H](N)C(=O)O` [L-citrulline], in test [2], the Kd was determined as 432 nM.
